Reference: patent US6124269A, “2-Halo-6-O-substituted ketolide derivatives” (priority 1998, dated 2000)
≈ marks a conversion by molar mass, not a printed value. Where “and” joins values, the source holds several entries; their conditions need not be identical. Equal values may be shown once.

Experiments:
Type in all cases: cell-based
[1] = test system: Staphylococcus aureus A-5278; assay: In vitro agar dilution MIC, organism code CC; settings: unit assumed
Method: (§1) Representative compounds of the present invention were assayed in vitro for antibacterial activity as follows: Twelve petri dishes containing successive aqueous dilutions of the test compound mixed with 10 mL of sterilized Brain Heart Infusion (BHI) agar (Difco 0418-01-5) were prepared. Each plate was inoculated with 1:100 (or 1:10 for slow-growing strains, such as Micrococcus and Streptococcus) dilutions of up to 32 different microorganisms, using a Steers replicator block. The inoculated plates were incubated at 35-37° C. for 20 to 24 hours. In addition, a control plate, using BHI agar containing no test compound, was prepared and incubated at the beginning and end of each test.
(§2) An additional plate containing a compound having known susceptibility patterns for the organisms being tested and belonging to the same antibiotic class as the test compound was also prepared and incubated as a further control, as well as to provide test-to-test comparability.
(§3) After incubation, each plate was visually inspected. The minimum inhibitory concentration (MIC) was defined as the lowest concentration of drug yielding no growth, a slight haze, or sparsely isolated colonies on the inoculum spot as compared to the growth control.

[2] = test system: Micrococcus luteus ATCC 9341; assay: In vitro agar dilution MIC, organism code OO; settings: Table 1B, unit assumed
Method: as §1, §2, §3

[3] = test system: Streptococcus pyogenes EES61; assay: In vitro agar dilution MIC, organism code LL; settings: unit assumed
Method: as §1, §2, §3

[4] = test system: Mycobacterium smegmatis ATCC 114; assay: In vitro agar dilution MIC, organism code UU; settings: Table 1B, in µg/mL (unit assumed)
Method: as §1, §2, §3

[5] = test system: Enterococcus faecium ATCC 8043; assay: In vitro agar dilution MIC, organism code II; settings: Table 1B, unit assumed
Method: as §1, §2, §3

[6] = test system: Streptococcus bovis A-5169; assay: In vitro agar dilution MIC, organism code JJ; settings: Table 1B, unit assumed
Method: as §1, §2, §3

[7] = test system: Streptococcus pneumoniae 5649; assay: In vitro agar dilution MIC, organism code ZZA; settings: unit assumed
Method: as §1, §2, §3

[8] = test system: Staphylococcus aureus CMX 642A; assay: In vitro agar dilution MIC, organism code DD; settings: Table 1B, unit assumed
Method: as §1, §2, §3

[9] = test system: Staphylococcus aureus ATCC 6538P; assay: In vitro agar dilution MIC, organism code AA; settings: unit assumed
Method: as §1, §2, §3

[10] = test system: Streptococcus agalactiae CMX 508; assay: In vitro agar dilution MIC, organism code KK; settings: Table 1B, unit assumed
Method: as §1, §2, §3

[11] = test system: Staphylococcus epidermidis 3519; assay: In vitro agar dilution MIC, organism code HH; settings: Table 1B, in µg/mL (unit assumed)
Method: as §1, §2, §3

Escherichia coli JUHL = assay: In vitro agar dilution MIC, organism code QQ; settings: Table 1B, in µg/mL (unit assumed)
Method: as §1, §2, §3

[12] = test system: Staphylococcus aureus NCTC10649M; assay: In vitro agar dilution MIC, organism code EE; settings: Table 1B, unit assumed
Method: as §1, §2, §3

[13] = test system: Streptococcus pyogenes 930; assay: In vitro agar dilution MIC, organism code MM; settings: unit assumed
Method: as §1, §2, §3

[14] = test system: Streptococcus pneumoniae GYR 1171; assay: In vitro agar dilution MIC, organism code YY; settings: Table 1B, unit assumed
Method: as §1, §2, §3

[15] = test system: Staphylococcus aureus CMX 553; assay: In vitro agar dilution MIC, organism code FF; settings: Table 1B, unit assumed
Method: as §1, §2, §3

[16] = test system: Micrococcus luteus ATCC 4698; assay: In vitro agar dilution MIC, organism code PP; settings: Table 1B, in µg/mL (unit assumed)
Method: as §1, §2, §3

[17] = test system: Nocardia asteroides ATCC 9970; assay: In vitro agar dilution MIC, organism code VV; settings: Table 1B, in µg/mL (unit assumed)
Method: as §1
as §2, with “comparability. Erythromycin A was used for this purpose.” for “comparability.”
as §3

[18] = test system: Haemophilis influenzae DILL AMP R; assay: In vitro agar dilution MIC, organism code WW; settings: unit assumed
Method: as §1, §2, §3

Candida albicans CCH 442 = assay: In vitro agar dilution MIC, organism code TT; settings: Table 1B, unit assumed
Method: as §1, §2, §3

[19] = test system: Streptococcus pneumoniae ATCC 6303; assay: In vitro agar dilution MIC, organism code XX; settings: unit assumed
Method: as §1, §2, §3

Escherichia coli DC-2 = assay: In vitro agar dilution MIC, organism code SS; settings: Table 1B, unit assumed
Method: as §1, §2, §3

[20] = test system: Staphylococcus aureus A5177; assay: In vitro agar dilution MIC, organism code BB; settings: in µg/mL (unit assumed)
Method: as §1, §2, §3

[21] = test system: Staphylococcus aureus 1775; assay: In vitro agar dilution MIC, organism code GG; settings: Table 1B, unit assumed
Method: as §1, §2, §3

Escherichia coli SS = assay: In vitro agar dilution MIC, organism code RR; settings: Table 1B, in µg/mL (unit assumed)
Method: as §1, §2, §3

[22] = test system: Streptococcus pyogenes PIU 2548; assay: In vitro agar dilution MIC, organism code NN; settings: unit assumed
Method: as §1, §2, §3

[23] = test system: Streptococcus pneumoniae 5979; assay: In vitro agar dilution MIC, organism code ZZ; settings: unit assumed
Method: as §1, §2, §3

Row | SMILES | MIC ([1]; Table 1B) [µg/mL] | MIC [2] [µg/mL] | MIC ([3]; Table 1B) [µg/mL] | MIC [4] | MIC [5] [µg/mL] | MIC [6] [µg/mL] | MIC ([7]; Table 1B) [µg/mL] | MIC [8] [µg/mL] | MIC ([9]; Table 1B) [µg/mL] | MIC [10] [µg/mL] | MIC [11] | MIC (Escherichia coli JUHL) | MIC [12] [µg/mL] | MIC ([13]; Table 1B) [µg/mL] | MIC [14] [µg/mL] | MIC [15] [µg/mL] | MIC [16] | MIC [17] | MIC ([18]; Table 1B) [µg/mL] | MIC (Candida albicans CCH 442) [µg/mL] | also measured
1 | CC[C@H]1OC(=O)[C@H](C)[C@@H](O[C@H]2C[C@@](C)(OC)[C@@H](O)[C@H](C)O2)[C@H](C)[C@@H](O[C@@H]2O[C@H](C)C[C@H](N(C)C)[C@H]2O)[C@](C)(O)C[C@@H](C)C(=O)[C@H](C)[C@@H](O)[C@]1(C)O [Ery. A, Erythromycin A, reference compound] | > 100 | 0.02 (≈ 0.0273 µM) | 0.02 (≈ 0.0273 µM) | 3.1 and 6.2 | 0.05 (≈ 0.0681 µM) | 0.02 (≈ 0.0273 µM) | 16 (≈ 21.8 µM) | 0.39 (≈ 0.531 µM) | 0.2 (≈ 0.273 µM) | 0.05 (≈ 0.0681 µM) | 0.39 and 0.2 | > 100 and 50 | 0.39 (≈ 0.531 µM) | > 100 | 0.06 (≈ 0.0818 µM) | 0.39 (≈ 0.531 µM) | 0.2 and 0.39 | 0.1 and 0.05 | 4 (≈ 5.45 µM) | > 100 | MIC ([19]; Table 1B): 0.06 µg/mL (≈ 0.0818 µM); MIC (Escherichia coli DC-2): > 100 µg/mL; MIC ([20]; Table 1B): 3.1 and 6.2; MIC [21]: > 100 µg/mL; MIC (Escherichia coli SS): 0.78 and 0.39
2 | CC[C@H]1OC(=O)C(C)(F)C(=O)[C@H](C)[C@@H](O[C@@H]2O[C@H](C)C[C@H](N(C)C)[C@H]2O)[C@](C)(OC)C[C@@H](C)C2=NCCN3C(=O)O[C@@]1(C)[C@H]3[C@H]2C (some centres unmarked) [Example 1] | > 100 | 0.02 (≈ 0.0305 µM) | 0.01 (≈ 0.0152 µM) | 0.2 | 0.05 (≈ 0.0762 µM) | 0.01 (≈ 0.0152 µM) | 0.5 (≈ 0.762 µM) | 0.1 (≈ 0.152 µM) | 0.1 (≈ 0.152 µM) | 0.02 (≈ 0.0305 µM) | 0.2 | > 50 | 0.2 (≈ 0.305 µM) | > 100 | 0.03 (≈ 0.0457 µM) | 0.1 (≈ 0.152 µM) | 0.2 | 0.05 | 2 (≈ 3.05 µM) | > 100 | MIC ([1]; Table 1C): > 100 µg/mL; MIC ([3]; Table 1C): 0.03 µg/mL (≈ 0.0457 µM); MIC ([7]; Table 1C): 0.5 µg/mL (≈ 0.762 µM); MIC ([9]; Table 1C): 0.1 µg/mL (≈ 0.152 µM); MIC ([22]; Table 1B): 0.2 µg/mL (≈ 0.305 µM); MIC ([22]; Table 1C): 0.5 µg/mL (≈ 0.762 µM); MIC ([13]; Table 1C): > 128 µg/mL; MIC ([18]; Table 1C): 2 µg/mL (≈ 3.05 µM); MIC ([19]; Table 1B): 0.03 µg/mL (≈ 0.0457 µM); MIC ([19]; Table 1C): 0.03 µg/mL (≈ 0.0457 µM); MIC (Escherichia coli DC-2): 25 µg/mL (≈ 38.1 µM); MIC ([20]; Table 1B): 0.1; MIC ([20]; Table 1C): 0.1; MIC [21]: > 100 µg/mL; MIC (Escherichia coli SS): 0.2
3 | CC[C@H]1OC(=O)C(C)(Cl)C(=O)[C@H](C)[C@@H](O[C@@H]2O[C@H](C)C[C@H](N(C)C)[C@H]2O)[C@](C)(OC)C[C@@H](C)C2=NCCN3C(=O)O[C@@]1(C)[C@H]3[C@H]2C (some centres unmarked) [Example 2] | > 100 | 3.1 (≈ 4.61 µM) | 3.1 (≈ 4.61 µM) | > 100 | 12.5 (≈ 18.6 µM) | 1.56 (≈ 2.32 µM) | 4 (≈ 5.95 µM) | 50 (≈ 74.4 µM) | 25 (≈ 37.2 µM) | 3.1 (≈ 4.61 µM) | 25 | > 100 | 25 (≈ 37.2 µM) | > 100 | 4 (≈ 5.95 µM) | 25 (≈ 37.2 µM) | 6.2 | 50 | 32 (≈ 47.6 µM) | > 100 | MIC ([1]; Table 1C): > 100 µg/mL; MIC ([3]; Table 1C): 4 µg/mL (≈ 5.95 µM); MIC ([23]; Table 1B): > 128 µg/mL; MIC ([23]; Table 1C): > 128 µg/mL; MIC ([7]; Table 1C): 4 µg/mL (≈ 5.95 µM); MIC ([9]; Table 1C): 25 µg/mL (≈ 37.2 µM); MIC ([22]; Table 1B): 6.2 µg/mL (≈ 9.22 µM); MIC ([22]; Table 1C): 16 µg/mL (≈ 23.8 µM); MIC ([13]; Table 1C): 128 µg/mL (≈ 190 µM); MIC ([18]; Table 1C): 32 µg/mL (≈ 47.6 µM); MIC ([19]; Table 1B): 4 µg/mL (≈ 5.95 µM); MIC ([19]; Table 1C): 4 µg/mL (≈ 5.95 µM); MIC (Escherichia coli DC-2): > 100 µg/mL; MIC ([20]; Table 1B): 25; MIC ([20]; Table 1C): 25; MIC [21]: > 100 µg/mL; MIC (Escherichia coli SS): 0.78
4 | CC[C@H]1OC(=O)C(C)(Br)C(=O)[C@H](C)[C@@H](O[C@@H]2O[C@H](C)C[C@H](N(C)C)[C@H]2O)[C@](C)(OC)C[C@@H](C)C2=NCCN3C(=O)O[C@@]1(C)[C@H]3[C@H]2C (some centres unmarked) [Example 3] | > 100 | 0.05 (≈ 0.0698 µM) | 0.05 (≈ 0.0698 µM) | 1.56 | 0.1 (≈ 0.14 µM) | 0.2 (≈ 0.279 µM) | 2 (≈ 2.79 µM) | 0.39 (≈ 0.544 µM) | 0.39 (≈ 0.544 µM) | 0.2 (≈ 0.279 µM) | 0.39 | > 100 | 0.39 (≈ 0.544 µM) | > 100 | 0.125 (≈ 0.174 µM) | 0.39 (≈ 0.544 µM) | 0.39 | 0.39 | 8 (≈ 11.2 µM) | > 100 | MIC ([1]; Table 1C): > 100 µg/mL; MIC ([3]; Table 1C): < 0.125 µg/mL; MIC ([23]; Table 1C): > 128 µg/mL; MIC ([7]; Table 1C): 1 µg/mL (≈ 1.4 µM); MIC ([9]; Table 1C): 0.78 µg/mL (≈ 1.09 µM); MIC ([22]; Table 1B): 0.39 µg/mL (≈ 0.544 µM); MIC ([13]; Table 1C): 128 µg/mL (≈ 179 µM); MIC ([18]; Table 1C): 8 µg/mL (≈ 11.2 µM); MIC ([19]; Table 1C): 0.25 µg/mL (≈ 0.349 µM); MIC (Escherichia coli DC-2): > 100 µg/mL; MIC ([20]; Table 1B): 0.39; MIC ([20]; Table 1C): 0.78; MIC [21]: > 100 µg/mL; MIC (Escherichia coli SS): 0.39
